Among the data in patent US5260257A, “Thermal transfer sheet” (Dai Nippon Printing Co., Ltd., priority 1991, dated 1993) are Light fastness values, retold here.

This data set in a line: light fastness test (xenon fadeometer, percentage fading). In kind it is physicochemical. The conditions noted are these: 70 kJ/m^2. How it is done: The light fastness test was conducted as follows.
Irradiation was conducted by means of a xenon fadeometer Ci35A (manufactured by Atlas) under conditions of a black panel temperature of 50° C. and an integrating irradiation energy of 70 kJ/m^2.
The percentage fading was determined from a density change around an initial density of 1.0 according to the following equation.
Percentage fading=(1-I/I0)×100 (%)
I=optical density after irradiation; and
I0 =optical density before irradiation.
.largecircle.: less than 20% in the percentage fading
X : 20% or more in the percentage fading

The mark [1] stands for this setting: Table A3, Comparative Examples A1-A6, 50° C.
[2] abbreviates: Table B3, Comparative Examples B1-B6, 50° C.
Setting [3] is: Table C (C3), Comparative Examples C1-C6, 50° C.
[4] abbreviates: Table B2, dyes of Table B1, 50° C.
The mark [5] stands for this setting: Table C2, dyes of Table C1, 50° C.

`CNc1ccc(NC)c2c1C(=O)c1ccccc1C2=O` [Comp. Ex. A1, C.I. Disperse Blue 14, reference compound]: the Light fastness entry by setting is: under setting [1], “Δ”; under setting [2], “Δ”; under setting [3], “Δ”. As to `CC(C)Nc1ccc(NC(C)C)c2c1C(=O)c1ccccc1C2=O` [Comp. Ex. A2, C.I. Disperse Blue 134, reference compound], the Light fastness result was “Δ” under setting [1], “Δ” under setting [2] and “Δ” under setting [3].

Take `CNc1ccc(Nc2cccc(C)c2)c2c1C(=O)c1ccccc1C2=O` [Comp. Ex. A3, C.I. Solvent Blue 63, reference compound]: the Light fastness result by setting is: under setting [1], “Δ”; under setting [2], “Δ”; under setting [3], “Δ”.

`CNc1ccc(O)c2c1C(=O)c1c(O)ccc(NC)c1C2=O` [Comp. Ex. A4, C.I. Disperse Blue 26, reference compound]: the Light fastness entry runs as follows: under setting [1], “Δ”; under setting [2], “Δ”; under setting [3], “Δ”.

Regarding `CNc1ccc(N)c2c1C(=O)c1ccccc1C2=O` [Comp. Ex. A5, C.I. Disperse Violet 4, reference compound], the Light fastness entry reads like this: under setting [1], “Δ”; under setting [2], “Δ”; under setting [3], “Δ”. For the molecule `CCN(CC)c1ccc(N=C2C=C(NC(=O)c3ccccc3)C(=O)C(Cl)=C2C)c(C)c1` [Comparative Example A6, reference compound], under setting [1], the Light fastness entry is on record as “.largecircle. (less than 20% in the percentage fading)”.

`CCN(CC)c1ccc(N=C2C=C(NC(=O)c3ccccc3)C(=O)C(Cl)=C2C)c(C)c1` [Comparative Example B6, reference compound]: under setting [2], the Light fastness result is on record as “.largecircle. (less than 20% in the percentage fading)”. For the molecule `CCN(CC)c1ccc(N=C2C=C(NC(=O)c3ccccc3)C(=O)C(Cl)=C2C)c(C)c1` [Comparative Example C6, reference compound], the Light fastness result under setting [3] is on record as “.largecircle. (less than 20% in the percentage fading)”. On to `CCN(CC)c1ccc(N=C2C=C(NC(=O)C3CC=CCC3)C(=O)C(Cl)=C2C)c(C)c1` (centres unmarked) [Dye No. 1 in Table B1], for which the Light fastness result under setting [4] is on record as “.largecircle. (less than 20% in the percentage fading)”. Consider `CCN(CC)c1ccc(N=C2C=C(NC(=O)C3CC4C=CC3C4)C(=O)C(Cl)=C2C)c(C)c1` (centres unmarked) [Dye No. 1 in Table C1], for which, under setting [5], the Light fastness result is “.largecircle. (less than 20% in the percentage fading)”. Turning to `CCN(CCO)c1ccc(N=C2C=C(NC(=O)C3CC=CCC3)C(=O)C(Cl)=C2C)c(C)c1` (centres unmarked) [Dye No. 2 in Table B1], the Light fastness result under setting [4] was “.largecircle. (less than 20% in the percentage fading)”. With `CCN(CC)c1ccc(N=C2C=CC(=O)C(NC(=O)C3CC4C=CC3C4)=C2)c(C)c1` (centres unmarked) [Dye No. 2 in Table C1], the Light fastness entry under setting [5] is “.largecircle. (less than 20% in the percentage fading)”. For `CCN(CC)c1ccc(N=C2C=C(NC(=O)C3CC=CCC3)C(=O)C=C2NC(C)=O)c(C)c1` (centres unmarked) [Dye No. 3 in Table B1], the Light fastness result under setting [4] was “.largecircle. (less than 20% in the percentage fading)”.

In the case of `CCN(CCO)c1ccc(N=C2C=C(NC(=O)C3CC4C=CC3C4)C(=O)C(Cl)=C2C)c(C)c1` (centres unmarked) [Dye No. 3 in Table C1], under setting [5], the Light fastness entry is “.largecircle. (less than 20% in the percentage fading)”. Regarding `CCOc1cc(N(CC)CC)ccc1N=C1C=CC(=O)C(NC(=O)C2CC=CCC2)=C1` (centres unmarked) [Dye No. 4 in Table B1], the Light fastness result under setting [4] is “.largecircle. (less than 20% in the percentage fading)”. In the case of `CCN(CC)c1ccc(N=C2C=C(NC(=O)C3CC4C=CC3C4)C(=O)C=C2NC(C)=O)c(C)c1` (centres unmarked) [Dye No. 4 in Table C1], under setting [5], the Light fastness result is “.largecircle. (less than 20% in the percentage fading)”. As for `CCC1=C(Cl)C(=O)C(NC(=O)C2CC=CCC2)=CC1=Nc1ccc(N(CC)CC)cc1C` (centres unmarked) [Dye No. 5 in Table B1], the Light fastness entry under setting [4] is “.largecircle. (less than 20% in the percentage fading)”. Consider `CCOc1cc(N(CC)CC)ccc1N=C1C=CC(=O)C(NC(=O)C2CC3C=CC2C3)=C1` (centres unmarked) [Dye No. 5 in Table C1], for which, under setting [5], the Light fastness entry is “.largecircle. (less than 20% in the percentage fading)”.

For `CCN(CC)c1ccc(N=C2C=C(NC(=O)C3CC=CCC3)C(=O)C(Cl)=C2C)c(NC(C)=O)c1` (centres unmarked) [Dye No. 6 in Table B1], the Light fastness result under setting [4] was “.largecircle. (less than 20% in the percentage fading)”.

For `CCN(CC)c1ccc(N=C2C=C(NC(=O)C3CC4C=CC3C4)C(=O)C(Cl)=C2C)cc1` (centres unmarked) [Dye No. 6 in Table C1], the Light fastness result under setting [5] is listed as “.largecircle. (less than 20% in the percentage fading)”. For `CCN(CCCl)c1ccc(N=C2C=C(NC(=O)C3CC=CCC3)C(=O)C(Cl)=C2C)c(NC(=O)NC)c1` (centres unmarked) [Dye No. 7 in Table B1], under setting [4], the Light fastness result is on record as “.largecircle. (less than 20% in the percentage fading)”.

As to `CCC1=C(Cl)C(=O)C(NC(=O)C2CC3C=CC2C3)=CC1=Nc1ccc(N(CC)CC)cc1C` (centres unmarked) [Dye No. 7 in Table C1], the Light fastness result under setting [5] was “.largecircle. (less than 20% in the percentage fading)”. As for `CCOc1cc(N(CC)CC)ccc1N=C1C=CC(=O)C(NC(=O)C2C=CCCC2)=C1` (centres unmarked) [Dye No. 8 in Table B1], the Light fastness result under setting [4] is listed as “.largecircle. (less than 20% in the percentage fading)”. `CCN(CC)c1ccc(N=C2C=C(NC(=O)C3CC4C=CC3C4)C(=O)C(Cl)=C2C)c(NC(C)=O)c1` (centres unmarked) [Dye No. 8 in Table C1]: the Light fastness entry under setting [5] is “.largecircle. (less than 20% in the percentage fading)”. For the molecule `CCOc1cc(N(CC)CCO)ccc1N=C1C=C(NC(=O)C2=CCCCC2)C(=O)C=C1NC(C)=O` [Dye No. 9 in Table B1], under setting [4], the Light fastness entry is listed as “.largecircle. (less than 20% in the percentage fading)”.

Consider `CCN(CCCl)c1ccc(N=C2C=C(NC(=O)C3CC4C=CC3C4)C(=O)C(Cl)=C2C)c(NC(=O)NC)c1` (centres unmarked) [Dye No. 9 in Table C1], for which, under setting [5], the Light fastness result is “.largecircle. (less than 20% in the percentage fading)”. As for `CCN(CC)c1ccc(N=C2C=C(NC(=O)C3=CCC=CC3)C(=O)C(Cl)=C2C)c(C)c1` [Dye No. 10 in Table B1], the Light fastness entry under setting [4] is given as “.largecircle. (less than 20% in the percentage fading)”. On to `CCOc1cc(N(CC)CCO)ccc1N=C1C=C(NC(=O)C2CC3C=CC2C3)C(=O)C=C1NC(C)=O` (centres unmarked) [Dye No. 10 in Table C1], for which the Light fastness entry under setting [5] is “.largecircle. (less than 20% in the percentage fading)”. As for `CCN(CC)c1ccc(N=C2C=CC(=O)C(NC(=O)C3C=CCC=C3)=C2)c(NC(C)=O)c1` [Dye No. 11 in Table B1], under setting [4], the Light fastness entry is on record as “.largecircle. (less than 20% in the percentage fading)”. On to `CCN(CC)c1ccc(N=C2C=C(NC(=O)C3=CC4C=CC3C4)C(=O)C(Cl)=C2C)c(C)c1` (centres unmarked) [Dye No. 11 in Table C1], for which the Light fastness entry under setting [5] is given as “.largecircle. (less than 20% in the percentage fading)”. The same measure, in the same setting: as for `CCN(CC)c1ccc(N=C2C=CC(=O)C(NC(=O)C3=CC4C=CC3C4)=C2)c(NC(C)=O)c1` (centres unmarked) [Dye No. 12 in Table C1], the entry is “.largecircle. (less than 20% in the percentage fading)”. `CCN(CCC#N)c1ccc(N=C2C=C(NC(=O)C3CC=CC3)C(=O)C(Cl)=C2C)c(NS(C)(=O)=O)c1` [Dye No. 13 in Table B1]: the Light fastness entry under setting [4] is on record as “.largecircle. (less than 20% in the percentage fading)”. As for `CCN(Cc1ccccc1)c1ccc(N=C2C=C(NC(=O)C3=CC4C=CC3C4)C(=O)C=C2NC(C)=O)cc1` (centres unmarked) [Dye No. 13 in Table C1], the Light fastness result under setting [5] is “.largecircle. (less than 20% in the percentage fading)”. As to `CCN(CCNS(C)(=O)=O)c1ccc(N=C2C=C(NC(=O)C3CC=CC3)C(=O)C=C2NS(C)(=O)=O)c(C)c1` [Dye No. 14 in Table B1], the Light fastness result under setting [4] is listed as “.largecircle. (less than 20% in the percentage fading)”. As for `CCN(CCC#N)c1ccc(N=C2C=C(NC(=O)C3=CC4C=CC3C4)C(=O)C(Cl)=C2C)c(NS(C)(=O)=O)c1` (centres unmarked) [Dye No. 14 in Table C1], the Light fastness entry under setting [5] is on record as “.largecircle. (less than 20% in the percentage fading)”.

For `CCN(c1ccccc1)c1ccc(N=C2C=C(NC(=O)C3CC=CC3)C(=O)C=C2NC(=O)NC)c(Cl)c1` [Dye No. 15 in Table B1], under setting [4], the Light fastness result is “.largecircle. (less than 20% in the percentage fading)”. Take `CCN(c1ccccc1)c1ccc(N=C2C=C(NC(=O)C3=CC4C=CC3C4)C(=O)C=C2NC(=O)NC)c(Cl)c1` (centres unmarked) [Dye No. 15 in Table C1]: the Light fastness entry under setting [5] was “.largecircle. (less than 20% in the percentage fading)”.

As for `CCN(c1ccccc1)c1ccc(N=C2C=C(NC(=O)C3=CCCC3)C(=O)C=C2NC(=O)NC)c(Cl)c1` [Dye No. 17 in Table B1], under setting [4], the Light fastness entry is reported as “.largecircle. (less than 20% in the percentage fading)”. In the case of `CCOCCN(CC)c1ccc(N=C2C=C(NC(=O)C3CC4CCC3C4)C(=O)C(Cl)=C2C)c(C)c1` (centres unmarked) [Dye No. 17 in Table C1], under setting [5], the Light fastness entry is listed as “.largecircle. (less than 20% in the percentage fading)”. As to `CCN(CC)c1ccc(N=C2C=C(NC(=O)C3=CCC=CC3)C(=O)C(Cl)=C2C)cc1` [Dye No. 18 in Table B1], the Light fastness entry under setting [4] is given as “.largecircle. (less than 20% in the percentage fading)”. Take `CCN(CC)c1ccc(N=C2C=C(NC(=O)C3CC4C=C(C)C3C4)C(=O)C(Cl)=C2C)c(C)c1` (centres unmarked) [Dye No. 18 in Table C1]: the Light fastness entry under setting [5] is on record as “.largecircle. (less than 20% in the percentage fading)”. Turning to `CCN(CCOC)c1ccc(N=C2C=C(NC(=O)C3=CCC=CC3)C(=O)C=C2NC(C)=O)c(NC(C)=O)c1` [Dye No. 19 in Table B1], the Light fastness entry under setting [4] was “.largecircle. (less than 20% in the percentage fading)”. For `CCOc1cc(N(CC)CC)c(OCC)cc1N=C1C=C(NC(=O)C2CC3C=C(C)C2C3)C(=O)C(Cl)=C1C` (centres unmarked) [Dye No. 19 in Table C1], the Light fastness result under setting [5] is “.largecircle. (less than 20% in the percentage fading)”.
